Source: ChEMBL document CHEMBL4376803, “Recent Advances in the Exploration of Therapeutic Analogues of Gramicidin S, an Old but Still Potent Antimicrobial Peptide” (J Med Chem, 2019)
Values after ≈ are worked out from the molar mass of the structure shown. One block for each molecule: values may come before it. Square brackets hold non-standard residues; d marks the D form. Peptide text beside a SMILES is read from it.

What was measured:
[1] = Haemolytic activity in human erythrocytes incubated for 30 mins; assay type: ADME, cell-based, Erythrocyte
Escherichia coli [2] = assay: Antibacterial activity against Escherichia coli UB1005 after overnight incubation by microtiter dilution method; assay type: functional
Pseudomonas aeruginosa [3] = assay: Antibacterial activity against Pseudomonas aeruginosa H187 after overnight incubation by microtiter dilution method; assay type: functional
Enterococcus faecalis [4] = assay: Antibacterial activity against Enterococcus faecalis ATCC 29212 after overnight incubation by microtiter dilution method; assay type: functional
Staphylococcus aureus [5] = assay: Antibacterial activity against Staphylococcus aureus K147 after overnight incubation by microtiter dilution method; assay type: functional
Candida albicans = assay: Antibacterial activity against Candida albicans after overnight incubation by microtiter dilution method; assay type: functional
Erythrocyte = assay: Haemolytic activity in human RBC after 4 hrs by visual method; assay type: ADME, cell-based
Lipopolysaccharide (LPS) = assay: Displacement of Dansyl-polymyxin from Pseudomonas aeruginosa LPS by fluorescence method; conditions: read-out: I50
[6] = Therapeutic index, ratio of HD100 for hemolytic activity in human RBC to MIC against Escherichia coli UB1005; assay type: toxicity; conditions: human red blood cells, read-out: TI
[7] = Therapeutic index, ratio of HD100 for hemolytic activity in human RBC to MIC against Pseudomonas aeruginosa H187; assay type: toxicity; conditions: human red blood cells, read-out: TI
[8] = Therapeutic index, ratio of HD100 for hemolytic activity in human RBC to MIC against Enterococcus faecalis ATCC 29212; assay type: toxicity; conditions: human red blood cells, read-out: TI
[9] = Therapeutic index, ratio of HD100 for hemolytic activity in human RBC to MIC against Staphylococcus aureus K147; assay type: toxicity; conditions: human red blood cells, read-out: TI
Escherichia coli [10] = assay: Antibacterial activity against Escherichia coli NBRC 12734 after overnight incubation by microplate dilution method; assay type: functional
Pseudomonas aeruginosa [11] = assay: Antibacterial activity against Pseudomonas aeruginosa NBRC 3080 after overnight incubation by microplate dilution method; assay type: functional
Bacillus subtilis = assay: Antibacterial activity against Bacillus subtilis NBRC 3513 after overnight incubation by microplate dilution method; assay type: functional
Staphylococcus aureus [12] = assay: Antibacterial activity against Staphylococcus aureus NBRC 12732 after overnight incubation by microplate dilution method; assay type: functional
Priestia megaterium = assay: Antibacterial activity against Bacillus megaterium ATCC 19213 after overnight incubation by microplate dilution method; assay type: functional
[13] = Hemolytic activity in sheep RBC incubated for 30 mins; assay type: ADME, cell-based, Ovis aries, Erythrocyte; conditions: sheep red blood cells
Escherichia coli [14] = assay: Antibacterial activity against Escherichia coli K-12 strain W3110 incubated for 20 hrs by liquid microdilution method; assay type: functional; conditions: K-12 substr. W3110, 20 h
Staphylococcus aureus [15] = assay: Antibacterial activity against Staphylococcus aureus 209P incubated for 20 hrs by liquid microdilution method; assay type: functional
Escherichia coli [16] = assay: Antibacterial activity against Escherichia coli ATCC 25922 after 24 hrs by broth dilution method; assay type: functional; conditions: ATCC 25922, 24 h
Pseudomonas aeruginosa [17] = assay: Antibacterial activity against Pseudomonas aeruginosa ATCC 19582 after 24 hrs by broth dilution method; assay type: functional; conditions: ATCC 19582, 24 h
Enterococcus faecalis [18] = assay: Antibacterial activity against Enterococcus faecalis 1131 after 24 hrs by broth dilution method; assay type: functional; conditions: Enterococcus faecalis, 1131, 24 h
Staphylococcus aureus [19] = assay: Antibacterial activity against Staphylococcus aureus 7323; assay type: functional
[20] = Hemolytic activity against RBC (unknown origin) at 100 ul after 4 hrs; assay type: ADME, cell-based, Erythrocyte; conditions: red blood cells (unknown origin)

SMILES: CC(C)C[C@@H]1NC(=O)[C@H](CCCN)NC(=O)[C@H](C(C)C)NC(=O)[C@@H]2C[C@@H](N[C@@H](Cc3ccccc3)C(=O)O)CN2C(=O)[C@@H](Cc2ccccc2)NC(=O)[C@H](CC(C)C)NC(=O)[C@H](CCCN)NC(=O)[C@H](C(C)C)NC(=O)[C@@H]2C[C@@H](N[C@@H](Cc3ccccc3)C(=O)O)CN2C(=O)[C@@H](Cc2ccccc2)NC1=O
- HC50 at 0.5 h [1]: 20 to 50 µg/mL

SMILES: CC(C)C[C@@H]1NC(=O)[C@H](CCCCN)NC(=O)[C@H](C(C)C)NC(=O)[C@@H]2CCCN2C(=O)[C@@H](Cc2ccc(O)cc2)NC(=O)[C@H](CC(C)C)NC(=O)[C@H](CCCCN)NC(=O)[C@H](C(C)C)NC(=O)[C@H](CCCCN)NC(=O)[C@H](CC(C)C)NC(=O)[C@@H]2CCCN2C(=O)[C@@H](Cc2ccc(O)cc2)NC(=O)[C@H](C(C)C)NC(=O)[C@H](CCCCN)NC1=O (cyclo(KLKV[dY]PLKVKL[dY]PV))
- MIC (Escherichia coli [2]): > 200 mg/L
- MIC (Pseudomonas aeruginosa [3]): > 200 mg/L
- MIC (Enterococcus faecalis [4]): 2.3 mg/L (≈ 1.38 µM)
- MIC (Staphylococcus aureus [5]): > 200 mg/L
- MIC (Candida albicans): 175 mg/L (≈ 105 µM)
- HD100 (Erythrocyte): 1.5 µg/mL
- IC50 (Lipopolysaccharide (LPS)): 3 µM
- selectivity ratio [6]: < 0.01
- selectivity ratio [7]: < 0.01
- selectivity ratio [8]: 0.7
- selectivity ratio [9]: < 0.01

SMILES: CC(C)C[C@@H]1NC(=O)[C@H](CCCN)NC(=O)[C@H](C(C)C)NC(=O)[C@@H]2C[C@@H](N[C@@H](CCCCN)C(=O)O)CN2C(=O)[C@@H](Cc2ccccc2)NC(=O)[C@H](CC(C)C)NC(=O)[C@H](CCCN)NC(=O)[C@H](C(C)C)NC(=O)[C@@H]2C[C@@H](N[C@@H](CCCCN)C(=O)O)CN2C(=O)[C@@H](Cc2ccccc2)NC1=O
- MIC (Escherichia coli [14]): 16 mg/L (≈ 11.2 µM)
- MIC (Staphylococcus aureus [15]): 8 mg/L (≈ 5.6 µM)

SMILES: CC(C)C[C@@H]1NC(=O)[C@H](CCCN)NC(=O)[C@H](C(C)C)NC(=O)[C@@H]2CCCN2C(=O)[C@@H](CCCCN)NC(=O)[C@H](CC(C)C)NC(=O)[C@@H](CCCN)NC(=O)[C@H](C(C)C)NC(=O)[C@@H]2CCCN2C(=O)[C@@H](CCCCN)NC1=O
- MIC (Escherichia coli [10]): 12.5 mg/L (≈ 11.3 µM)
- MIC (Pseudomonas aeruginosa [11]): 12.5 mg/L (≈ 11.3 µM)
- MIC (Bacillus subtilis): 6.25 mg/L (≈ 5.66 µM)
- MIC (Staphylococcus aureus [12]): 3.13 mg/L (≈ 2.84 µM)
- MIC (Priestia megaterium): 3.13 mg/L (≈ 2.84 µM)
- HC50 at 0.5 h [13]: 150 to 200 µg/mL

SMILES: CC(C)C[C@@H]1NC(=O)[C@H](CCCN)NC(=O)[C@H](C(C)C)NC(=O)[C@@H]2C[C@@H](N)CN2C(=O)[C@@H](Cc2ccccc2)NC(=O)[C@H](CC(C)C)NC(=O)[C@H](CCCN)NC(=O)[C@H](C(C)C)NC(=O)[C@@H]2C[C@@H](N)CN2C(=O)[C@@H](Cc2ccccc2)NC1=O [listing 2 of 2 here]
- HC50 at 0.5 h [1]: 50 to 100 µg/mL

Further lines, with some results ahead:

- MIC (Escherichia coli [10]): 25 mg/L (≈ 19 µM)
- MIC (Pseudomonas aeruginosa [11]): 100 mg/L (≈ 76.2 µM)
- MIC (Bacillus subtilis): 3.13 mg/L (≈ 2.38 µM)
- MIC (Staphylococcus aureus [12]): 3.13 mg/L (≈ 2.38 µM)
- MIC (Priestia megaterium): 3.13 mg/L (≈ 2.38 µM)
SMILES: CC(C)C[C@@H]1NC(=O)[C@H](CCCN)NC(=O)[C@H](C(C)C)NC(=O)[C@@H]2CCCN2C(=O)[C@@H](Cc2ccccc2)NC(=O)[C@H](CC(C)C)NC(=O)[C@H](CCCN)NC(=O)[C@H](C(C)C)NC(=O)[C@@H]2CCCN2C(=O)NC(=O)[C@H](Cc2ccccc2)NC(=O)[C@H](CCCCN)NC1=O
- HC50 at 0.5 h [13]: > 100 µg/mL

- MIC (Escherichia coli [14]): 64 mg/L (≈ 54.6 µM)
- MIC (Staphylococcus aureus [15]): 32 mg/L (≈ 27.3 µM)
SMILES: CC(C)C[C@@H]1NC(=O)[C@H](CCCN)NC(=O)[C@H](C(C)C)NC(=O)[C@@H]2C[C@@H](N)CN2C(=O)[C@@H](Cc2ccccc2)NC(=O)[C@H](CC(C)C)NC(=O)[C@H](CCCN)NC(=O)[C@H](C(C)C)NC(=O)[C@@H]2C[C@@H](N)CN2C(=O)[C@@H](Cc2ccccc2)NC1=O [listing 1 of 2 here]

- MIC (Escherichia coli [16]): 8 mg/L (≈ 7.07 µM)
- MIC (Pseudomonas aeruginosa [17]): 16 mg/L (≈ 14.1 µM)
- MIC (Enterococcus faecalis [18]): 16 mg/L (≈ 14.1 µM)
- MIC (Staphylococcus aureus [19]): 4 mg/L (≈ 3.54 µM)
SMILES: CC(C)C[C@@H]1NC(=O)[C@H](CCCN)NC(=O)[C@H](C(C)C)NC(=O)[C@@H]2CCCN2C(=O)[C@@H](Cc2c[nH]cn2)NC(=O)[C@H](CC(C)C)NC(=O)[C@@H](CCCN)NC(=O)[C@H](C(C)C)NC(=O)[C@@H]2CCCN2C(=O)[C@@H](Cc2ccccc2)NC1=O
- HC50 at 4 h [20]: 90 to 110 µg/mL

- MIC (Escherichia coli [10]): 25 mg/L (≈ 19.3 µM)
- MIC (Pseudomonas aeruginosa [11]): 100 mg/L (≈ 77 µM)
- MIC (Bacillus subtilis): 6.25 mg/L (≈ 4.81 µM)
- MIC (Staphylococcus aureus [12]): 3.13 mg/L (≈ 2.41 µM)
- MIC (Priestia megaterium): 3.13 mg/L (≈ 2.41 µM)
SMILES: CC(C)C[C@@H]1NC(=O)[C@H](CCCN)NC(=O)[C@H](C(C)C)NC(=O)[C@@H]2CCCN2C(=O)[C@@H](Cc2ccccc2)NC(=O)[C@H](CC(C)C)NC(=O)[C@H](CCCN)NC(=O)[C@H](C(C)C)NC(=O)[C@@H]2CCCN2C(=O)NC(=O)[C@H](Cc2ccccc2)NC(=O)[C@H](CCCN)NC1=O
- HC50 at 0.5 h [13]: 90 to 100 µg/mL

- MIC (Escherichia coli [16]): 64 mg/L (≈ 50.3 µM)
- MIC (Pseudomonas aeruginosa [17]): > 64 mg/L
- MIC (Enterococcus faecalis [18]): 4 mg/L (≈ 3.14 µM)
- MIC (Staphylococcus aureus [19]): 4 mg/L (≈ 3.14 µM)
SMILES: CC(C)C[C@@H]1NC(=O)[C@H](CCCN)NC(=O)[C@H](C(C)C)NC(=O)[C@@H]2CCCN2C(=O)[C@@H](Cc2cn(Cc3cccc4ccccc34)nn2)NC(=O)[C@H](CC(C)C)NC(=O)[C@@H](CCCN)NC(=O)[C@H](C(C)C)NC(=O)[C@@H]2CCCN2C(=O)[C@@H](Cc2ccccc2)NC1=O
- HC50 at 4 h [20]: 5 to 10 µg/mL
